Source: patent publication US20230144824A1, “1H-PYRAZOLO[4,3-d]PYRIMIDINE COMPOUNDS AS TOLL-LIKE RECEPTOR 7 (TLR7) AGONISTS” (BRISTOL-MYERS SQUIBB COMPANY, priority 2020, published 2023)

How the values were obtained:
human TLR7 = target: T1, human TLR7 (Homo sapiens, UniProt Q9NYK1); assay: Human TLR7 agonist activity assay (HEK-Blue TLR7 SEAP reporter); format: cell-based; settings: HEK-Blue TLR7 cells, 18 h treatment, average where assay performed multiple times, read-out: hTLR7 Agonism EC50
T1 construct: host or cells: HEK-Blue TLR7 cells (engineered human embryonic kidney cells)
T1 sequence (Q9NYK1 27-1049): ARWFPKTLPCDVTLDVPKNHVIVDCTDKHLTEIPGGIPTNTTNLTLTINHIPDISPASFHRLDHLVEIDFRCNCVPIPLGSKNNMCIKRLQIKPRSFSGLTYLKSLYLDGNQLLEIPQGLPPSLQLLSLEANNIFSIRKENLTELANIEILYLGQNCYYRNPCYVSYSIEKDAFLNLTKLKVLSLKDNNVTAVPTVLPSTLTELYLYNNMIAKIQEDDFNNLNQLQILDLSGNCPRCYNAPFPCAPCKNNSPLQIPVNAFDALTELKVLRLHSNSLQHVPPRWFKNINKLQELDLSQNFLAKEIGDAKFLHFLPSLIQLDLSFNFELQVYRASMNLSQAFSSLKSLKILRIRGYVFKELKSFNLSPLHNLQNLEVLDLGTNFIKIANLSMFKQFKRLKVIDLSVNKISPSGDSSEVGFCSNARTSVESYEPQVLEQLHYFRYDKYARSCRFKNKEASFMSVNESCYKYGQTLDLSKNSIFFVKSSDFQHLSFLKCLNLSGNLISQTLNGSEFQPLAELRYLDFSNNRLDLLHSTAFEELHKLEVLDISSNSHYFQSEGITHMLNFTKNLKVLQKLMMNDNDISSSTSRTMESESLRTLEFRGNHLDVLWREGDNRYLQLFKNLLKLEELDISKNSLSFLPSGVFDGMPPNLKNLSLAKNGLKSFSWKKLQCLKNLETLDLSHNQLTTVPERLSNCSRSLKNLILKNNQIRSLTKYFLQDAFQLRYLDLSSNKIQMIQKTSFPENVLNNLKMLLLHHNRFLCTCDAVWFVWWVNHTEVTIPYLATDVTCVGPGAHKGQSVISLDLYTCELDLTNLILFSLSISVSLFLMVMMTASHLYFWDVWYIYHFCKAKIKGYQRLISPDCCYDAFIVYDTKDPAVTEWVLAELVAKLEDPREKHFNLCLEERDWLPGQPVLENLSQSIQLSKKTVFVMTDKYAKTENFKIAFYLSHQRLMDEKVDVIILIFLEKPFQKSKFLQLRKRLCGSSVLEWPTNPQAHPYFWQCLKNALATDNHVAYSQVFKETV
Procedure: This procedure describes a method for assaying human TLR7 (hTLR7) agonist activity of the compounds disclosed in this specification.
HEK-Blue™ TLR7 cells were added to each well of a 384-well tissue-culture plate (15,000 cells per well) and incubated 16-18 h at 37° C., 5% CO2. Compounds (100 nl) were dispensed into wells containing the HEK-Blue™ TLR cells and the treated cells were incubated at 37° C., 5% CO2. After 18 h treatment ten microliters of freshly-prepared Quanti-Blue™ reagent (Invivogen) was added to each well, incubated for 30 min (37° C., 5% CO2) and SEAP levels measured using an Envision plate reader (OD=620 nm). The half maximal effective concentration values (EC50; compound concentration which induced a response halfway between the assay baseline and maximum) were calculated.

CD69 = assay: Induction of CD69 in human whole blood; format: cell-based; settings: Homo sapiens, 17 h, 100% set to 1 uM of resiquimod, average where assay performed multiple times, read-out: hWB CD69 EC50
Procedure: The induction of Type I interferon (IFN) MX-1 genes and the B-cell activation marker CD69 are downstream events that occur upon activation of the TLR7 pathway. The following is a human whole blood assay that measures their induction in response to a TLR7 agonist.
Heparinized human whole blood was harvested from human subjects and treated with test TLR7 agonist compounds at 1 mM. The blood was diluted with RPMI 1640 media and Echo was used to predot 10 nL per well giving a final concentration of 1 uM (10 nL in 10 uL of blood). After mixing on a shaker for 30 sec, the plates were covered and placed in a 37° C. chamber for o/n=17 hrs. Fixing/lysis buffer was prepared (5×->1× in H2O, warm at 37° C.; Cat #BD 558049) and kept the perm buffer (on ice) for later use.
For surface markers staining (CD69): prepared surface Abs: 0.045 ul hCD14-FITC (ThermoFisher Cat #MHCD1401)+0.6 ul hCD19-ef450 (ThermoFisher Cat #48-0198-42)+1.5 ul hCD69-PE (cat #BD555531)+0.855 ul FACS buffer. Added 3 ul/well, spin1000 rpm for 1 min and mixed on shaker for 30 sec, put on ice for 30 mins. Stop stimulation after 30 minutes with 70 uL of prewarmed 1× fix/lysis buffer and use Feliex mate to resuspend (15 times, change tips for each plate) and incubate at 37 C for 10 minutes.
Centrifuge at 2000 rpm for 5 minutes aspirate with HCS plate washer, mix on shaker for 30 sec and then wash with 70 uL in dPBS and pelleted 2×s (2000 rpm for 5 min) and 50 ul wash in FACS buffer pelleted 1×s (2000 rpm for 5 min). Mix on shaker for 30 sec. For Intracellular markers staining (MX-1): Add 50 ul of BD Perm buffer III and mix on shaker for 30 sec. Incubate on ice for 30 minutes (in the dark). Wash with 50 uL of FACS buffer 2×(spin @2300 rpm×5 min after perm) followed by mixing on shaker for 30 sec. Resuspended in 20 ul of FACS buffer containing MX1 antibody ( )(4812)-Alexa 647: Novus Biologicals #NBP2-43704AF647) 20 ul FACS bf+0.8 ul hIgG+0.04 ul MX-1. Spin 1000 rpm for 1 min, mix on shaker for 30 se and the samples were incubated at RT in the dark for 45 minutes followed by washing 2×FACS buffer (spin @2300 rpm×5 min after perm). Resuspend 20 ul (35 uL total per well) of FACS buffer and cover with foil and place in 4° C. to read the following day. Plates were read on iQuePlus. The results were loaded into toolset and IC50 curves are generated in curve master. The y-axis 100% is set to 1 uM of resiquimod.

Row | Compound | EC50 (human TLR7) [nM] | EC50 (CD69) [nM]
1 | CCC[C@@H](CCO)Nc1nc(N)nc2cnn(Cc3ccc(C4CNCCN4)cc3OC)c12 (stereo partly drawn) [Compound 180, (3S)-3-[(5-amino-1-{[2-methoxy-4-(piperazin-2-yl)phenyl]methyl}-1H-pyrazolo[4,3-d]pyrimidin-7-yl)amino]hexan-1-ol] | 67.9 | 7.2
2 | COc1cc(C2CCN(C3CNC3)CC2)cnc1Cn1ncc2nc(N)nc(NCC3CC4(CC4)C3)c21 [Compound 158, 1-({5-[1-(azetidin-3-yl)piperidin-4-yl]-3-methoxypyridin-2-yl}methyl)-N7-({spiro[2.3]hexan-5-yl}methyl)-1H-pyrazolo[4,3-d]pyrimidine-5,7-diamine] | 224 | 69.4
3 | CCCCNc1nc(N)nc2cnn(Cc3ncc(C4CCN(C5COC5)CC4)cc3OC)c12 [Compound 102, N7-butyl-1-({3-methoxy-5-[1-(oxetan-3-yl)piperidin-4-yl]pyridin-2-yl}methyl)-1H-pyrazolo[4,3-d]pyrimidine-5,7-diamine] | 120 | 87.8
4 | CCCCNc1nc(N)nc2cnn(Cc3ncc(C4CCN(C5CCS(=O)(=O)CC5)CC4)cc3OC)c12 [Compound 116, 4-[4-(6-{[5-amino-7-(butylamino)-1H-pyrazolo[4,3-d]pyrimidin-1-yl]methyl}-5-methoxypyridin-3-yl)piperidin-1-yl]-1λ^6-thiane-1,1-dione] | 84.6 | 10.5
5 | CCCCNc1nc(N)nc2cnn(Cc3ncc(C4CCN(C=O)CC4)cc3OC)c12 [Compound 132, 4-(6-{[5-amino-7-(butylamino)-1H-pyrazolo[4,3-d]pyrimidin-1-yl]methyl}-5-methoxypyridin-3-yl)piperidine-1-carbaldehyde] | 180 | 195
6 | COc1cc(C2CCN(C3CCOCC3)CC2)cnc1Cn1ncc2nc(N)nc(NCc3noc(C)n3)c21 [Compound 200, 1-({3-methoxy-5-[1-(oxan-4-yl)piperidin-4-yl]pyridin-2-yl}methyl)-N7-[(5-methyl-1,2,4-oxadiazol-3-yl)methyl]-1H-pyrazolo[4,3-d]pyrimidine-5,7-diamine] | 117 | –
7 | COc1cc(C2CCN(CCO)CC2)cnc1Cn1ncc2nc(N)nc(NCC3CC4(CC4)C3)c21 [Compound 153, 2-{4-[6-({5-amino-7-[({spiro[2.3]hexan-5-yl}methyl)amino]-1H-pyrazolo[4,3-d]pyrimidin-1-yl}methyl)-5-methoxypyridin-3-yl]piperidin-1-yl}ethan-1-ol] | 86.8 | –
8 | COc1cc(C2CCN(CCN(C)C)CC2)cnc1Cn1ncc2nc(N)nc(NCc3cc(C)on3)c21 [Compound 145, 1-[(5-{1-[2-(dimethylamino)ethyl]piperidin-4-yl}-3-methoxypyridin-2-yl)methyl]-N7-[(5-methyl-1,2-oxazol-3-yl)methyl]-1H-pyrazolo[4,3-d]pyrimidine-5,7-diamine] | 101 | –
9 | CCC[C@@H](CCO)Nc1nc(N)nc2cnn(Cc3ncc(C4CCN(C(=O)CN5CCOCC5)CC4)cc3OC)c12 [Compound 208, 1-(4-{6-[(5-amino-7-{[(3S)-1-hydroxyhexan-3-yl]amino}-1H-pyrazolo[4,3-d]pyrimidin-1-yl)methyl]-5-methoxypyridin-3-yl}piperidin-1-yl)-2-(morpholin-4-yl)ethan-1-one] | 168 | –
10 | CCC[C@@H](CCO)Nc1nc(N)nc2c(C)nn(Cc3cnc(C4CCN(CC#N)CC4)cc3OC)c12 [Compound 220, 2-(4-{5-[(5-amino-7-{[(3S)-1-hydroxyhexan-3-yl]amino}-3-methyl-1H-pyrazolo[4,3-d]pyrimidin-1-yl)methyl]-4-methoxypyridin-2-yl}piperidin-1-yl)acetonitrile] | 436 | –

Compounds with a lower EC50 (human TLR7), results first:

Row | EC50 (human TLR7) [nM] | EC50 (CD69) [nM] | Compound
11 | 6.8 | 0.28 | CCC[C@@H](CCO)Nc1nc(N)nc2cnn(Cc3ccc(C4CN(C(C)C)CCN4)cc3OC)c12 (stereo partly drawn) [Compound 182, (3S)-3-{[5-amino-1-({2-methoxy-4-[4-(propan-2-yl)piperazin-2-yl]phenyl}methyl)-1H-pyrazolo[4,3-d]pyrimidin-7-yl]amino}hexan-1-ol]
12 | 28.5 | 25.8 | CCCCNc1nc(N)nc2cnn(Cc3ncc(C4CCN(CC(C)(C)O)CC4)cc3OC)c12 [Compound 146, 1-[4-(6-{[5-amino-7-(butylamino)-1H-pyrazolo[4,3-d]pyrimidin-1-yl]methyl}-5-methoxypyridin-3-yl)piperidin-1-yl]-2-methylpropan-2-ol]
13 | 8.1 | 1.1 | CCC[C@@H](CCO)Nc1nc(N)nc2cnn(Cc3ncc(C4CCN(C5CN(C(C)C)C5)CC4)cc3OC)c12 [Compound 139, (3S)-3-({5-amino-1-[(3-methoxy-5-{1-[1-(propan-2-yl)azetidin-3-yl]piperidin-4-yl}pyridin-2-yl)methyl]-1H-pyrazolo[4,3-d]pyrimidin-7-yl}amino)hexan-1-ol]
14 | 27.3 | 7.6 | CCCCNc1nc(N)nc2cnn(Cc3ncc(C4CCN(C5CCCC5)CC4)cc3OC)c12 [Compound 129, N7-butyl-1-{[5-(1-cyclopentylpiperidin-4-yl)-3-methoxypyridin-2-yl]methyl}-1H-pyrazolo[4,3-d]pyrimidine-5,7-diamine]
15 | 25.1 | – | CCC[C@@H](CCO)Nc1nc(N)nc2cnn(Cc3ncc(C4CCN(Cc5ncco5)CC4)cc3OC)c12 [Compound 207, (3S)-3-({5-amino-1-[(3-methoxy-5-{1-[(1,3-oxazol-2-yl)methyl]piperidin-4-yl}pyridin-2-yl)methyl]-1H-pyrazolo[4,3-d]pyrimidin-7-yl}amino)hexan-1-ol]
16 | 12.2 | – | CCCCNc1nc(N)nc2cnn(Cc3ccc(C4CCN(C(=O)CC(C)(C)O)CC4)cc3OC)c12 [Compound 162, 1-[4-(4-{[5-amino-7-(butylamino)-1H-pyrazolo[4,3-d]pyrimidin-1-yl]methyl}-3-methoxyphenyl)piperidin-1-yl]-3-hydroxy-3-methylbutan-1-one]
17 | 35 | – | CCC[C@@H](CCO)Nc1nc(N)nc2cnn(Cc3ccc(C4CN(C5CCOCC5)CCN4)cc3OC)c12 (stereo partly drawn) [Compound 203, (3S)-3-{[5-amino-1-({2-methoxy-4-[4-(oxan-4-yl)piperazin-2-yl]phenyl}methyl)-1H-pyrazolo[4,3-d]pyrimidin-7-yl]amino}hexan-1-ol]
